IC50 data for 30 molecules are collected here from patent US7935694B2, “Lactam compounds useful as protein kinase inhibitors” (Millennium Pharmaceuticals, Inc., priority 2004, dated 2011).

Structures are written as SMILES.

For this assay, the target named is T1, recombinant murine Aurora A enzyme (Mus musculus, UniProt P97477).
T1 construct: hexahistidine (His6) (N); made in house; host or cells: insect cells (baculovirus, Bac-to-Bac)
T1 sequence (P97477 1-395): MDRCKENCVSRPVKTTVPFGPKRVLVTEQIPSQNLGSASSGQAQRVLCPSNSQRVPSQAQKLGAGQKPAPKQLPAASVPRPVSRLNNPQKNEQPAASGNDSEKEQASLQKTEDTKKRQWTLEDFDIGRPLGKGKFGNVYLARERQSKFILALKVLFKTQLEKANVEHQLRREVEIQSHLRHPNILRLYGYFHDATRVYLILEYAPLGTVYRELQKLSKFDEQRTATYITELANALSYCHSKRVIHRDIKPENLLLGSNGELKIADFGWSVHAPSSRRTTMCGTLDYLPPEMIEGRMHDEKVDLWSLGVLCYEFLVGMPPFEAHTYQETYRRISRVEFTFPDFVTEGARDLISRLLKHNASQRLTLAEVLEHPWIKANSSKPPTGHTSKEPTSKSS
Briefly: Aurora A DELFIA Kinase Assay. The format is biochemical. The following applies: 1 mM ATP, 20 nM enzyme, 10 minutes at room temperature. As to the method:
Recombinant mouse Aurora A with an amino-terminus hexahistidine tag (His-Aurora A) was expressed using a standard baculovirus vector and insect cell expression system (Bac-to-Bac®, Invitrogen). Soluble, recombinant mouse Aurora A was purified from insect cells using Ni-NTA agarose (Qiagen) as described by the manufacturer and further purified over an S75 size exclusion column (Amersham Pharmacia Biotech). The mouse Aurora A enzymatic reaction totaled 25 μL and contained 25 mM Tris-HCl (pH 8.5), 2.5 mM MgCl2, 0.05% Surfact-AMPS-20, 5 mM Sodium Fluoride, 5 mM DTT, 1 mM ATP, 3 μM peptide substrate (Biotin-β-[…]), and 20 nM recombinant murine Aurora A enzyme. The enzymatic reaction mixture, with and without Aurora inhibitors, was incubated for 10 minutes at room temperature before termination with 100 μL of stop buffer (1% BSA, 0.05% Surfact-AMPS-20, and 100 mM EDTA). A total of 100 μL of the enzyme reaction mixture was transferred to wells of a Neutravidin-coated 96-well plate (Pierce) and incubated at room temperature for 30 minutes. The wells were washed with wash buffer (25 mM Tris, 150 mM sodium chloride, and 0.1% Tween 20) and incubated for 1 hour with 100 μL of antibody reaction mixture containing 1% BSA, 0.05% Surfact-AMPS-20, anti-phospho-PKA rabbit polyclonal antibody (1:2000, New England Biolabs), and europium labeled anti-rabbit IgG (1:2000, Perkin Elmer). The wells were washed and then the bound europium was liberated using 100 μL of Enhancement Solution (Perkin Elmer). Quantification of europium was done using a WallacTM EnVision (Perkin Elmer).
For `Cc1ccc2c(c1)NC(=O)Cc1cnc(Nc3ccc(C(=O)O)cc3)nc1-2` [Compound I-9, 4-(9-Methyl-6-oxo-6,7-dihydro-5H-benzo[b]pyrimido[4,5-d]azepin-2-ylamino)-benzoic acid], the 50% inhibitory concentration (IC50) – broadly, the concentration needed to halve the response being measured – is no more than 500 nM.

In the case of `COc1ccc(Nc2ncc3c(n2)-c2ccc(C(N)=O)cc2NC(=O)C3)cc1OC` [Compound I-70, 2-(3,4-dimethoxy-phenylamino)-6-oxo-6,7-dihydro-5H-benzo[b]pyrimido[4,5-d]azepine-9-carboxylic acid amide], the IC50 was no more than 500 nM.

On to `NCCNC(=O)c1cccc(Nc2ncc3c(n2)-c2ccc(Cl)cc2NC(=O)C3)c1` [Compound I-62, N-(2-Amino-ethyl)-3-(9-chloro-6-oxo-6,7-dihydro-5H-benzo[b]pyrimido[4,5-d]azepin-2-ylamino)-benzamide], for which the concentration for half-maximal inhibition (IC50) was no more than 500 nM.

As for `COc1ccc(Nc2ncc3c(n2)-c2ccccc2NC(=O)C3)cc1OC` [Compound I-27, 2-(3,4-Dimethoxy-phenylamino)-5H,7H-benzo[b]pyrimido[4,5-d]azepin-6-one], the IC50 is no more than 500 nM.

Turning to `COc1ccc(Nc2ncc3c(n2)-c2ccc(C#CCN4CCCC4)cc2NC(=O)C3)cc1OC` [Compound I-32, 2-(3,4-Dimethoxy-phenylamino)-9-(3-pyrrolidin-1-yl-prop-1-ynyl)-5H,7H benzo[b]pyrimido[4,5-d]azepin-6-one], the IC50 was no more than 500 nM.

Regarding `COc1ccc(Nc2ncc3c(n2)-c2ccc(CCCN4CCCC4)cc2NC(=O)C3)cc1OC` [Compound I-49, 2-(3,4-Dimethoxy-phenylamino)-9-(3-pyrrolidin-1-yl-propyl)-5H,7H-benzo[b]-pyrimido[4,5-d]azepin-6-one], the IC50 was no more than 500 nM.

For `COc1ccc(Nc2ncc3c(n2)-c2ccc(C(=O)NCCCCN)cc2NC(=O)C3)cc1OC` [Compound I-73, 2-(3,4-Dimethoxy-phenylamino)-6-oxo-6,7-dihydro-5H-benzo[b]pyrimido[4,5-d]azepine-9-carboxylic acid (4-amino-butyl)-amide], the IC50 is no more than 500 nM.

Turning to `COc1ccc(Nc2ncc3c(n2)-c2ccc(CCCN(C)C)cc2NC(=O)C3)cc1OC` [Compound I-88, 2-(3,4-Dimethoxy-phenylamino)-9-(3-dimethylamino-propyl)-5H,7H-benzo[b]pyrimido[4,5-d]azepin-6-one], the half-maximal inhibitory concentration (IC50) is no more than 500 nM.

As to `CN1C(=O)Cc2cnc(Nc3ccc(C(=O)O)cc3)nc2-c2ccc(Cl)cc21` [Compound I-7, 4-(9-Chloro-7-methyl-6-oxo-6,7-dihydro-5H-benzo[b]pyrimido[4,5-d]azepin-2-ylamino)-benzoic acid], the IC50 was no more than 500 nM.

In the case of `COc1ccc(Nc2ncc3c(n2)-c2cc(Br)ccc2NC(=O)C3)cc1OC` [Compound I-18, 10-Bromo-2-(3,4-dimethoxy-phenylamino)-5H,7H-benzo[b]pyrimido[4,5-d]azepin-6-one], the IC50 was no more than 5000 nM.

With `O=C1Cc2cnc(Nc3ccc(CCCN4CCCC4)cc3)nc2-c2ccc(Cl)cc2N1` [Compound I-66, 9-Chloro-2-[4-(3-pyrrolidin-1-yl-propyl)-phenylamino]-5H,7H-benzo[b]pyrimido[4,5-d]-azepin-6-one], the IC50 is no more than 500 nM.

As to `NCCCCNC(=O)c1cccc(Nc2ncc3c(n2)-c2ccc(Cl)cc2NC(=O)C3)c1` [Compound I-64, N-(4-Amino-butyl)-3-(9-chloro-6-oxo-6,7-dihydro-5H-benzo[b]pyrimido[4,5-d]azepin-2-ylamino)-benzamide], the 50% inhibitory concentration (IC50) is no more than 500 nM.

As to `COc1ccc(Nc2ncc3c(n2)-c2ccc(C(=O)NCCN)cc2NC(=O)C3)cc1OC` [Compound I-71, 2-(3,4-Dimethoxy-phenylamino)-6-oxo-6,7-dihydro-5H-benzo[b]pyrimido[4,5-d]azepine-9-carboxylic acid (2-amino-ethyl)-amide], the IC50 was no more than 500 nM.

As to `COc1ccc(Nc2ncc3c(n2)-c2ccc(C#CCN)cc2NC(=O)C3)cc1OC` [Compound I-38, 9-(3-Amino-prop-1-ynyl)-2-(3,4-dimethoxy-phenylamino)-5H,7H-benzo[b]pyrimido[4,5-d]azepin-6-one], the IC50 was no more than 500 nM.

For the molecule `COc1ccc(Nc2ncc3c(n2)-c2ccc(C#CCN(C)C)cc2NC(=O)C3)cc1OC` [Compound I-91, 2-(3,4-Dimethoxy-phenylamino)-9-(3-dimethylamino-prop-1-ynyl)-5H,7H-benzo[b]pyrimido[4,5-d]azepin-6-one], the IC50 is no more than 500 nM.

With `COc1ccc(Nc2ncc3c(n2)-c2ccc(I)cc2NC(=O)C3)cc1OC` [Compound I-30, 2-(3,4-dimethoxy-phenylamino)-9-iodo-5H,7H-benzo[b]pyrimido[4,5-d]azepin-6-one], the half-inhibitory concentration (IC50) was no more than 500 nM.

Consider `C#Cc1ccc2c(c1)NC(=O)Cc1cnc(Nc3ccc(OC)c(OC)c3)nc1-2` [Compound I-33, 2-(3,4-dimethoxy-phenylamino)-9-ethynyl-5H,7H-benzo[b]pyrimido[4,5-d]azepin-6-one], for which the half-maximal inhibitory concentration (IC50) is no more than 500 nM.

As to `COc1ccc(Nc2ncc3c(n2)-c2ccc(C)cc2NC(=O)C3)cc1OC` [Compound I-42, 2-(3,4-Dimethoxy-phenylamino)-9-methyl-5H,7H-benzo[b]pyrimido[4,5-d]azepin-6-one], the IC50 was no more than 500 nM.

As to `CCc1ccc2c(c1)NC(=O)Cc1cnc(Nc3ccc(OC)c(OC)c3)nc1-2` [Compound I-37, 2-(3,4-Dimethoxy-phenylamino)-9-ethyl-5H,7H-benzo[b]pyrimido[4,5-d]azepin-6-one], the IC50 is no more than 500 nM.

As to `COc1ccc(Nc2ncc3c(n2)-c2ccc(C(=O)NCCCN)cc2NC(=O)C3)cc1OC` [Compound I-72, 2-(3,4-Dimethoxy-phenylamino)-6-oxo-6,7-dihydro-5H-benzo[b]pyrimido[4,5-d]azepine-9-carboxylic acid (3-amino-propyl)-amide], the half-maximal inhibitory concentration (IC50) was no more than 500 nM.

Turning to `O=C(O)c1ccc(Nc2ncc3c(n2)-c2ccc(Cl)cc2N(c2ccccc2)C(=O)C3)cc1` [Compound I-10, 4-(9-Chloro-6-oxo-7-phenyl-6,7-dihydro-5H-benzo[b]pyrimido[4,5-d]azepin-2-ylamino)-benzoic acid], the half-maximal inhibitory concentration (IC50) is no more than 500 nM.

Consider `CNCCCc1ccc2c(c1)NC(=O)Cc1cnc(Nc3ccc(OC)c(OC)c3)nc1-2` [Compound I-87, 2-(3,4-Dimethoxy-phenylamino)-9-(3-methylamino-propyl)-5H,7H-benzo[b]pyrimido[4,5-d]azepin-6-one], for which the concentration for half-maximal inhibition (IC50) was no more than 500 nM.

As to `COc1ccc(Nc2ncc3c(n2)-c2ccc(C(=O)O)cc2NC(=O)C3)cc1OC` [Compound I-53, 2-(3,4-dimethoxy-phenylamino)-6-oxo-6,7-dihydro-5H-benzo[b]pyrimido[4,5-d]azepine-9-carboxylic acid], the half-inhibitory concentration (IC50) is no more than 500 nM.

Take `O=C1Cc2cnc(Nc3ccc(C#CCN4CCCC4)cc3)nc2-c2ccc(Cl)cc2N1` [Compound I-47, 9-Chloro-2-[4-(3-pyrrolidin-1-yl-prop-1-ynyl)-phenylamino]-5H,7H-benzo[b]-pyrimido[4,5-d]azepin-6-one]: the half-maximal inhibitory concentration (IC50) is no more than 500 nM.

With `COc1ccc(Nc2ncc3c(n2)-c2ccc(Cl)cc2NC(=O)C3)cc1OC` [Compound I-2, 9-Chloro-2-(3,4-dimethoxy-phenylamino)-5H,7H-benzo[b]pyrimido[4,5-d]azepin-6-one], the 50% inhibitory concentration (IC50) was no more than 500 nM.

`O=C1Cc2cnc(Nc3cccc(C#CCN4CCCC4)c3)nc2-c2ccc(Cl)cc2N1` [Compound I-89, 9-Chloro-2-[3-(3-pyrrolidin-1-yl-prop-1-ynyl)-phenylamino]-5H,7H-benzo[b]-pyrimido[4,5-d]azepin-6-one]: the IC50 was no more than 500 nM.

With `NCCc1cccc(Nc2ncc3c(n2)-c2ccc(Cl)cc2NC(=O)C3)c1` [Compound I-86, 2-[3-(2-Amino-ethyl)-phenylamino]-9-chloro-5H,7H-benzo[b]pyrimido[4,5-d]azepin-6-one], the 50% inhibitory concentration (IC50) is no more than 500 nM.

As to `NCC#Cc1cccc(Nc2ncc3c(n2)-c2ccc(Cl)cc2NC(=O)C3)c1` [Compound I-67, 2-[3-(3-Amino-prop-1-ynyl)-phenylamino]-9-chloro-5H,7H-benzo[b]pyrimido[4,5-d]azepin-6-one], the IC50 is no more than 500 nM.

On to `CCCc1ccc2c(c1)NC(=O)Cc1cnc(Nc3ccc(OC)c(OC)c3)nc1-2` [Compound I-82, 2-(3,4-Dimethoxy-phenylamino)-9-propyl-5H,7H-benzo[b]pyrimido[4,5-d]azepin-6-one], for which the IC50 was no more than 500 nM.

Regarding `COc1ccc(Nc2ncc3c(n2)-c2ccc(CCCN)cc2NC(=O)C3)cc1OC` [Compound I-50, 9-(3-Amino-propyl)-2-(3,4-dimethoxy-phenylamino)-5H,7H-benzo[b]pyrimido[4,5-d]azepin-6-one], the half-maximal inhibitory concentration (IC50) was no more than 500 nM.
